Converted amounts (≈) assume the structure as drawn. The source made the active and inactive calls. The rule behind the calls is not given here.
Experiments:
[1] = system: MV4-11; test: Antitumor activity against human MV4-11 cells xenografted in BALB/c mouse assessed as tumour growth inhibition at 45 mg/kg, iv administered every other day for 21 days relative to control; format: functional; conditions: MV4-11, iv, 504 h, read-out: TGI
[2] = system: MV4-11; test: Induction of apoptosis in human MV4-11 cells assessed as increase in cleaved PARP level after 24 hrs by Western blot analysis; format: functional, cell-based
[3] = system: HL-60; test: Antiproliferative activity against human HL60 cells assessed as reduction in cell viability after 72 hrs by MTT assay; format: functional, cell-based; conditions: HL-60, 72 h
[4] = system: MV4-11; test: Induction of apoptosis in human MV4-11 cells by Annexin-V/propidium iodide staining based flow cytometric method; format: functional, cell-based
[5] = system: MV4-11; test: Induction of apoptosis in human MV4-11 cells assessed as decrease in MCL-1 expression after 4 hrs by Western blot analysis; format: functional, cell-based
[6] = system: MV4-11; test: Cell cycle arrest in human MV4-11 cells assessed as accumulation at G2 phase at 0.05 uM after 24 hrs propidium iodide staining based flow cytometry (reference value: 22.73%); format: functional
[7] = system: MV4-11; test: Cell cycle arrest in human MV4-11 cells assessed as accumulation at S phase at 0.25 uM after 24 hrs propidium iodide staining based flow cytometry (reference value: 26.06%); format: functional
[8] = system: MV4-11; test: Induction of apoptosis in human MV4-11 cells assessed as late apoptotic cells at 0.25 uM after 24 hrs by Annexin-V/propidium iodide staining based flow cytometric method (reference value: 0.07%); format: functional
[9] = system: MV4-11; test: Induction of apoptosis in human MV4-11 cells assessed as effect on BCL-2 expression after 4 hrs by Western blot analysis; format: functional, cell-based
[10] = system: MV4-11; test: Cell cycle arrest in human MV4-11 cells assessed as accumulation at G1 phase at 0.05 uM after 24 hrs by propidium iodide staining based flow cytometry (reference value: 41.20%); format: functional
[11] = system: HeLa; test: Antiproliferative activity against human HeLa cells assessed as reduction in cell viability after 72 hrs by MTT assay; format: functional, cell-based
[12] = system: SW480; test: Antiproliferative activity against human SW480 cells assessed as reduction in cell viability after 72 hrs by MTT assay; format: functional, cell-based; conditions: SW480, 72 h
[13] = system: MV4-11; test: Induction of apoptosis in human MV4-11 cells assessed as necrotic cells at 0.05 uM after 24 hrs by Annexin-V/propidium iodide staining based flow cytometric method (reference value: 2.64%); format: functional
[14] = system: MV4-11; test: Cell cycle arrest in human MV4-11 cells assessed as accumulation at S phase at 1.25 uM after 24 hrs propidium iodide staining based flow cytometry (reference value: 26.06%); format: functional
[15] = system: MV4-11; test: Induction of apoptosis in human MV4-11 cells assessed as necrotic cells at 0.25 uM after 24 hrs by Annexin-V/propidium iodide staining based flow cytometric method (reference value: 2.64%); format: functional
[16] = system: MV4-11; test: Induction of apoptosis in human MV4-11 cells assessed as early apoptotic cells at 1.25 uM after 24 hrs by Annexin-V/propidium iodide staining based flow cytometric method (reference value: 0.36%); format: functional
[17] = system: MV4-11; test: Induction of apoptosis in human MV4-11 cells assessed as late apoptotic cells at 0.05 uM after 24 hrs by Annexin-V/propidium iodide staining based flow cytometric method (reference value: 0.07%); format: functional
[18] = system: MV4-11; test: Antitumor activity against human MV4-11 cells xenografted in BALB/c mouse assessed as tumour growth inhibition at 30 mg/kg, iv administered every other day for 21 days relative to control; format: functional; conditions: MV4-11, iv, 504 h, read-out: TGI
[19] = system: MV4-11; test: Induction of apoptosis in human MV4-11 cells assessed as late apoptotic cells at 1.25 uM after 24 hrs by Annexin-V/propidium iodide staining based flow cytometric method (reference value: 0.07%); format: functional
[20] = Toxicity in BALB/c mouse assessed as effect on body weight at 15 to 45 mg/kg, iv administered every other day for 21 days; format: organism-based; conditions: in vivo, 504 h
[21] = system: HCT-116; test: cells; conditions: Homo sapiens, HCT-116, 72 h
Description: Antiproliferative activity against human HCT116 cells assessed as reduction in cell viability after 72 hrs by MTT assay

[22] = molecular target: CDK2/Cyclin A2 (Homo sapiens, UniProt P24941)
Description: Inhibition of human CDK2/cyclin-A2 using H1 histone as substrate after 2 hrs by [gamma-33P]-ATP assay

[23] = system: MV4-11; test: Induction of apoptosis in human MV4-11 cells assessed as viable cells at 0.25 uM after 24 hrs by Annexin-V/propidium iodide staining based flow cytometric method (reference value: 96.94%); format: functional; conditions: MV4-11, 24 h, read-out: Activity
[24] = system: HT-29; test: Antiproliferative activity against human HT-29 cells assessed as reduction in cell viability after 72 hrs by MTT assay; format: functional, cell-based; conditions: HT-29, 72 h
[25] = system: MV4-11; test: Induction of apoptosis in human MV4-11 cells assessed as early apoptotic cells at 0.05 uM after 24 hrs by Annexin-V/propidium iodide staining based flow cytometric method (reference value: 0.36%); format: functional
[26] = system: MV4-11; test: Induction of apoptosis in human MV4-11 cells assessed as increase in caspase-3 level after 24 hrs by Western blot analysis; format: functional, cell-based
[27] = system: MV4-11; test: Cell cycle arrest in human MV4-11 cells assessed as accumulation at S phase at 0.05 uM after 24 hrs propidium iodide staining based flow cytometry (reference value: 26.06%); format: functional
[28] = system: THP-1; test: Antiproliferative activity against human THP1 cells assessed as reduction in cell viability after 72 hrs by MTT assay; format: functional, cell-based; conditions: THP-1, 72 h
[29] = system: MV4-11; test: Induction of apoptosis in human MV4-11 cells assessed as decrease in c-MYC expression after 4 hrs by Western blot analysis; format: functional, cell-based
[30] = Antiproliferative activity against human BGC803 cells assessed as reduction in cell viability after 72 hrs by MTT assay; format: functional, cell-based; conditions: BGC803, 72 h
[31] = system: MV4-11; test: Cell cycle arrest in human MV4-11 cells assessed as accumulation at G1 phase at 0.25 uM after 24 hrs after 24 hrs by propidium iodide staining based flow cytometry (reference value: 41.20%); format: functional
[32] = system: MV4-11; test: Cell cycle arrest in human MV4-11 cells assessed as accumulation at G2 phase at 0.25 uM after 24 hrs propidium iodide staining based flow cytometry (reference value: 22.73%); format: functional
[33] = physchem; conditions: methanesulfonic acid buffer, pH 4.5
Description: Solubility of compound in methanesulfonic acid buffer at pH 4.5

[34] = system: A549; test: cells; conditions: Homo sapiens, A549, 72 h
Description: Antiproliferative activity against human A549 cells assessed as reduction in cell viability after 72 hrs by MTT assay

[35] = system: MV4-11; test: Antitumor activity against human MV4-11 cells xenografted in BALB/c mouse assessed as tumour growth inhibition at 15 mg/kg, iv administered every other day for 21 days relative to control; format: functional; conditions: MV4-11, iv, 504 h, read-out: TGI
[36] = system: MV4-11; test: Cell cycle arrest in human MV4-11 cells assessed as accumulation at G2 phase at 1.25 uM after 24 hrs propidium iodide staining based flow cytometry (reference value: 22.73%); format: functional
[37] = system: MV4-11; test: Cell cycle arrest in human MV4-11 cells assessed as accumulation at G1 phase at 1.25 uM after 24 hrs by propidium iodide staining based flow cytometry (reference value: 41.20%); format: functional
[38] = system: RPMI-8226; test: Antiproliferative activity against human RPMI8226 cells assessed as reduction in cell viability after 72 hrs by MTT assay; format: functional, cell-based; conditions: RPMI-8226, 72 h
[39] = physchem; conditions: buffer, pH 7.4
Description: Hydrophobicity, log D of compound at pH 7.4

## COc1cc(O)c2c(=O)cc(-c3ccc(N4CCN(C)CC4)cc3)oc2c1Oc1c(C)n[nH]c1C
[1]
  inhibition in vivo at 45 mg/kg: 53%
[2]
  Activity: Dose-dependent effect
[3]
  IC50: 5210 nM
[4]
  Activity: Dose-dependent effect
[5]
  Activity: Dose-dependent effect
[6]
  Activity: 17.82%
[7]
  Activity: 30.91%
[8]
  Activity: 7.29%
[9]
  Activity: inactive
[10]
  Activity: 48.27%
[11]
  IC50: 2320 nM
[12]
  IC50: 1860 nM
[13]
  Activity: 7.27%
[14]
  Activity: 28.21%
[15]
  Activity: 7.72%
[16]
  Activity: 26.43%
[17]
  Activity: 5.53%
[18]
  inhibition in vivo at 30 mg/kg: 42.6%
[19]
  Activity: 9.05%
[20]
  Activity: Non-Toxic
[21]
  IC50: 390 nM
[22]
  IC50: 913 nM
[23]
  viability at 0.25 µM: 63.7%
[24]
  IC50: 1800 nM
[25]
  Activity: 12.42%
[26]
  Activity: Dose-dependent effect
[27]
  Activity: 33.91%
[28]
  IC50: 790 nM
[29]
  Activity: Dose-dependent effect
[30]
  IC50: 3120 nM
[31]
  Activity: 55.77%
[32]
  Activity: 13.32%
[33]
  solubility: 4540 µg/mL (≈ 9.53 mM)
[34]
  IC50: 1810 nM
[35]
  inhibition in vivo at 15 mg/kg: 22.9%
[36]
  Activity: 9.01%
[37]
  Activity: 62.77%
[38]
  IC50: 820 nM
[39]
  logD: 2.01

— ChEMBL document CHEMBL4364281, “Design of wogonin-inspired selective cyclin-dependent kinase 9 (CDK9) inhibitors with potent in vitro and in vivo antitumor activity” (Eur J Med Chem, 2019)
